Results as given in US5500344A, “Serine protease and uses thereof” (The United States of America as represented by the …, priority 1992, dated 1996).
Starred links: 1 amine or outer side, 2 acyl side, 3 side chain; linkers in the order of their positions; H or OH if unused. Non-standard residues stand in square brackets, D forms with d. Residues, ends and D or L forms follow the SMILES beside them. *: point of attachment. Suc = O=C(CCC(=O)[*:2])[*:1]; Nle = CCCC[C@H](N)C(=O)O; Boc = CC(C)(C)OC(=O)*; SBn = c1ccc(CS*)cc1

Key:
Met-ase = molecular target: T1, Met-ase (Rattus norvegicus, UniProt Q03238); test: Initial rates of peptide thiobenzyl ester substrate hydrolysis by HPLC-purified Met-ase (HPLC fraction 104); assay type: biochemical; conditions: [S] 100-133 μM, pH 7.5, 25° C.
T1 construct: endogenous in cells; host or cells: rat RNK-16 LGL leukemia cells, cytolytic granules, HPLC fraction 104
T1 sequence (Q03238 21-258 limits assumed): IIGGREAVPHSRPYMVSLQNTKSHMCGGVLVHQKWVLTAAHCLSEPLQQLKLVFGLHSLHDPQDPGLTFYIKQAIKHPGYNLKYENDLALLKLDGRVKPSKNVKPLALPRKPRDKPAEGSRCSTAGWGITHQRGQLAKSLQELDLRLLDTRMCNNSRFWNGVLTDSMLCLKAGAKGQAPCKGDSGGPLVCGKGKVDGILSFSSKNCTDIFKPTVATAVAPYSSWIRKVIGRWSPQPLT
Experimental: (§1) Briefly, 50 μl of sample was added to 100 μl of 1 mM DTNB, made up in 10 mM Hepes, 1 mM CaCl2, 1 mM MgCl2, pH7.2. The reaction was initiated by the addition of 50 μl of BLT (Sigma) to give a final concentration of 500 μM. For Metase determinations, 50 μl of dilutions of the sample in 0.1M Hepes, 0.05M CaCl2, pH7.5 were added to 100 μl of 1 mM DTNB and the reaction was initiated by the addition of 50 μl of Boc-Ala-Ala-Met-S Benzyl (Bzl) to give a final concentration of 150 μM. The duration of the assay depended on color development, the rate of which was measured (0.D410) on a Dynatech MR 5000 microplate reader. Controls of sample and DTNB alone or DTNB and substrate alone were run. For more sensitive comparisons of enzymatic activities, peptide thiobenzyl ester substrates were used to measure protease activities. The chymase substrate Suc-Phe-Leu-Phe-SBzl was purchased from BACHEM Bioscience Inc., Philadelphia, Pa. […] Boc-Ala-Ala-Asp-SBzl is the substrate for Asp-ase and peptide thiobenzyl esters containing Met, Leu or Nle are substrates for Met-ase SP. […] The initial rates were measured at 324 nm using a Beckman 35 spectrophotometer when 10-25 μl of an enzyme stock solution was added to a cuvette containing 2.0 ml of buffer, 150 μl of 4,4'-dithiodipyridine and 25 μl of substrate. The same volume of substrate and 4,4'-dithiodipyridine were added to the reference cell in order to compensate for the background hydrolysis rate of the substrates. Initial rates were measured in duplicate for each substrate concentration and were averaged in each case.
(§2) 10 μl of enzyme solution was added to […]

Asp-ase = molecular target: T2, Asp-ase (Rattus norvegicus, UniProt P18291); test: Initial rates of peptide thiobenzyl ester substrate hydrolysis by HPLC-purified Asp-ase; assay type: biochemical; conditions: [S] 100-133 μM, 0.1 M Hepes, 0.01 M CaCl2, pH 7.5, 8% Me2SO, 25° C.
T2 construct: Asp-ase purified by HPLC as previously described; endogenous in cells; host or cells: rat RNK LGL leukemia cells, cytolytic granules, HPLC-purified (Sayers et al. 1992)
T2 sequence (P18291 21-248): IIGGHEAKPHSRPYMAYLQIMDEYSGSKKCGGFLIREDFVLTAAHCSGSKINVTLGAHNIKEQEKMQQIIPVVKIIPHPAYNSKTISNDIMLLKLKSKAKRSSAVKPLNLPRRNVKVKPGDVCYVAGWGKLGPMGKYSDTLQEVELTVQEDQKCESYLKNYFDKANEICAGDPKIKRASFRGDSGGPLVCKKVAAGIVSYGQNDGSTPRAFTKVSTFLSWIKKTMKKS
Experimental: as §1, §2

Tryptase = molecular target: T3, Tryptase (Rattus norvegicus, UniProt P49864); test: Initial rates of peptide thiobenzyl ester substrate hydrolysis by HPLC-purified Tryptase (HPLC fraction 56); assay type: biochemical; conditions: [S] 100-133 μM, pH 7.5, 25° C.
T3 construct: The BLT-esteraseactivity was found in fractions 49 and 56; endogenous in cells; host or cells: rat RNK-16 NK/LGL leukemia cells, cytolytic granules, HPLC fraction 56
T3 sequence (P49864 26-258): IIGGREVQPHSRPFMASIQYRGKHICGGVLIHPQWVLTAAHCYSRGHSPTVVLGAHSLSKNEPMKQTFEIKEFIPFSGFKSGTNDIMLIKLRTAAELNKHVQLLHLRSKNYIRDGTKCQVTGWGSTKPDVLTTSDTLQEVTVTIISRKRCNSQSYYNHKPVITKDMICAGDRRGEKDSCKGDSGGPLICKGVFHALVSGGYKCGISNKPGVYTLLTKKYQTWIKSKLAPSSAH
Experimental: as §1, §2

Boc-Ala-Ala-Met-SBzl = molecular target: T4, Boc-Ala-Ala-Met-SBzl
T4 sequence (peptide, N-terminal Boc; C-terminal thiobenzyl ester (SBzl)): AAM

Boc-Ala-Ala-Asp-SBzl = molecular target: T5, Boc-Ala-Ala-Asp-SBzl
T5 sequence (peptide, N-terminal Boc; C-terminal thiobenzyl ester (SBzl)): AAD

Boc-Ala-Ala-Ser-SBzl = molecular target: T6, Boc-Ala-Ala-Ser-SBzl
T6 sequence (peptide, N-terminal Boc; C-terminal thiobenzyl ester (SBzl)): AAS

Suc-Phe-Leu-Phe-SBzl = molecular target: T7, Suc-Phe-Leu-Phe-SBzl
T7 sequence (peptide, N-terminal Suc; C-terminal thiobenzyl ester (SBzl)): FLF

[1] = 10 μl enzyme solution (HPLC fraction 104)
[2] = 10 μl enzyme solution (HPLC fraction 56)
[3] = 25 μl enzyme solution (HPLC fraction 104)

Row | Compound | Initial Rates, Met-ase (Met-ase; [1]) | Initial Rates, Asp-ase (Asp-ase; 10 μl enzyme solution) | Initial Rates, Tryptase (Tryptase; [2]) | Initial Rates, Met-ase (Met-ase; [3]) | also measured
1 | C[C@H](NC(=O)OC(C)(C)C)C(=O)N[C@@H](C)C(=O)N[C@@H](CC(=O)O)C(=O)SCc1ccccc1 [Boc--Ala--Ala--Asp--SBz1, Boc-Ala-Ala-Asp-SBzl] (Boc-Ala-Ala-Asp-SBn) | 0 nM/s | 12.6 nM/s | 0 nM/s |  | Initial Rates, Asp-ase (Asp-ase; 25 μl enzyme solution): 44.6 nM/s
2 | CC(C)C[C@H](NC(=O)[C@H](C)NC(=O)[C@H](C)NC(=O)OC(C)(C)C)C(=O)SCc1ccccc1 [Boc--Ala--Ala--Leu--SBz1] (Boc-Ala-Ala-Leu-SBn) | 2.9 nM/s |  |  |  | 
3 | CSCC[C@H](NC(=O)[C@H](C)NC(=O)[C@H](C)NC(=O)OC(C)(C)C)C(=O)SCc1ccccc1 [Boc--Ala--Ala--Met--SBz1, Boc-Ala-Ala-Met-S Benzyl (Bzl)] (Boc-Ala-Ala-Met-SBn) | 4.2 nM/s | 0 nM/s | 0 nM/s | 13.7 nM/s | 
4 | CCCC[C@H](NC(=O)[C@H](C)NC(=O)[C@H](C)NC(=O)OC(C)(C)C)C(=O)SCc1ccccc1 [Boc--Ala--Ala--Nle--SBz1] (Boc-Ala-Ala-[Nle]-SBn) | 3.9 nM/s |  |  | 15.2 nM/s | 
5 | C[C@H](NC(=O)OC(C)(C)C)C(=O)N[C@@H](C)C(=O)N[C@@H](CO)C(=O)SCc1ccccc1 [Boc--Ala--Ala--Ser--SBz1] (Boc-Ala-Ala-Ser-SBn) | 0 nM/s | 1.3 nM/s | 0.4 nM/s |  | Initial Rates, Asp-ase (Asp-ase; 25 μl enzyme solution): 6.7 nM/s
6 | CSCC[C@H](NC(=O)[C@H](C)NC(=O)[C@H](C)NC(=O)CCC(=O)O)C(=O)SCc1ccccc1 [Suc--Ala--Ala--Met--SBz1, Suc-Ala-Ala-Met-SBzl] (Suc-Ala-Ala-Met-SBn) |  |  |  | 10.1 nM/s | 
7 | CC(C)C[C@H](NC(=O)[C@H](Cc1ccccc1)NC(=O)CCC(=O)O)C(=O)N[C@@H](Cc1ccccc1)C(=O)SCc1ccccc1 [Suc--Phe--Leu--Phe--SBz1, Suc-Phe-Leu-Phe-SBzl] (Suc-Phe-Leu-Phe-SBn) | 0 nM/s | 0 nM/s | 0 nM/s |  | 
8 | N=C(N)NCCC[C@H](NC(=O)OCc1ccccc1)C(=O)SCc1ccccc1 [Z--Arg--SBz1, Z-Arg-SBzl] | 0 nM/s | 0 nM/s | 22.7 nM/s |  | Initial Rates, Tryptase (Tryptase; 25 μl enzyme solution (HPLC fraction 56)): 93.4 nM/s
9 | Asp-ase (RNKP-1) (from UniProt P18291) (enzyme) |  |  |  |  | Initial Rates (Boc-Ala-Ala-Met-SBzl): 0 nM/s; Initial Rates (Boc-Ala-Ala-Asp-SBzl): 12.6 nM/s; Initial Rates (Boc-Ala-Ala-Ser-SBzl): 1.3 nM/s; Initial Rates (Suc-Phe-Leu-Phe-SBzl): 0 nM/s
